Measured values published in patent US9790228B2, “Heterocyclic kinase inhibitors” (Intellikine LLC, priority 2008, dated 2017).

How the values were obtained:
p110δ/p85α = p110δ/p85α (Homo sapiens (Human), UniProt O00329); assay: PI3K δ inhibition assay (TLC lipid kinase or HTRF); type: biochemical
Method in brief: (§1)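 IC50 from TLC lipid kinase assay (25 mM HEPES pH 7.4, 10 mM MgCl2, 100 μg/ml phosphatidylinositol, 10 or 100 μM γ-32P-ATP, 5 min RT, phosphorimager) at 10–12 two-fold dilutions, or HTRF (10 μM PIP2, 10 μM ATP, 1 h RT) measuring PIP3 by TR-FRET; 2% DMSO final.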

p110γ = p110γ (Homo sapiens (Human), UniProt P48736); assay: PI3K γ inhibition assay (TLC lipid kinase or HTRF); type: biochemical
Method in brief: as §1

p110α/p85α = p110α/p85α (Homo sapiens (Human), UniProt P42336); assay: PI3K α inhibition assay (TLC lipid kinase or HTRF); type: biochemical
Method in brief: as §1

p110β/p85α = p110β/p85α (Homo sapiens, UniProt P42338); assay: PI3K β inhibition assay (TLC lipid kinase or HTRF); type: biochemical; settings: read-out: PI3K β IC50
Method in brief: as §1

Balb/c splenic B cells = assay: B cell activation and proliferation assay (Alamar Blue); type: cell-based, mouse; settings: Mus musculus, B-cell
Method: The ability of one or more subject compounds to inhibit B cell activation and proliferation is determined according to standard procedures known in the art. For example, an in vitro cellular proliferation assay is established that measures the metabolic activity of live cells. The assay is performed in a 96 well microtiter plate using Alamar Blue reduction. Balb/c splenic B cells are purified over a Ficoll-Paque™ PLUS gradient followed by magnetic cell separation using a MACS B cell Isolation Kit (Miletenyi). Cells are plated in 90 ul at 50,000 cells/well in B Cell Media (RPMI+10% FBS+Penn/Strep+50 uM bME+5 mM HEPES). A compound disclosed herein is diluted in B Cell Media and added in a 10 ul volume. Plates are incubated for 30 min at 37 C and 5% CO2 (0.2% DMSO final concentration). A 50 ul B cell stimulation cocktail is then added containing either 10 ug/ml LPS or 5 ug/ml F(ab′)2 Donkey anti-mouse IgM plus 2 ng/ml recombinant mouse IL4 in B Cell Media. Plates are incubated for 72 hours at 37° C. and 5% CO2. A volume of 15 uL of Alamar Blue reagent is added to each well and plates are incubated for 5 hours at 37 C and 5% CO2. Alamar Blue fluoresce is read at 560Ex/590Em, and IC50 or EC50 values are calculated using GraphPad Prism 5.

Sequence of p110α/p85α (P42336 whole entry): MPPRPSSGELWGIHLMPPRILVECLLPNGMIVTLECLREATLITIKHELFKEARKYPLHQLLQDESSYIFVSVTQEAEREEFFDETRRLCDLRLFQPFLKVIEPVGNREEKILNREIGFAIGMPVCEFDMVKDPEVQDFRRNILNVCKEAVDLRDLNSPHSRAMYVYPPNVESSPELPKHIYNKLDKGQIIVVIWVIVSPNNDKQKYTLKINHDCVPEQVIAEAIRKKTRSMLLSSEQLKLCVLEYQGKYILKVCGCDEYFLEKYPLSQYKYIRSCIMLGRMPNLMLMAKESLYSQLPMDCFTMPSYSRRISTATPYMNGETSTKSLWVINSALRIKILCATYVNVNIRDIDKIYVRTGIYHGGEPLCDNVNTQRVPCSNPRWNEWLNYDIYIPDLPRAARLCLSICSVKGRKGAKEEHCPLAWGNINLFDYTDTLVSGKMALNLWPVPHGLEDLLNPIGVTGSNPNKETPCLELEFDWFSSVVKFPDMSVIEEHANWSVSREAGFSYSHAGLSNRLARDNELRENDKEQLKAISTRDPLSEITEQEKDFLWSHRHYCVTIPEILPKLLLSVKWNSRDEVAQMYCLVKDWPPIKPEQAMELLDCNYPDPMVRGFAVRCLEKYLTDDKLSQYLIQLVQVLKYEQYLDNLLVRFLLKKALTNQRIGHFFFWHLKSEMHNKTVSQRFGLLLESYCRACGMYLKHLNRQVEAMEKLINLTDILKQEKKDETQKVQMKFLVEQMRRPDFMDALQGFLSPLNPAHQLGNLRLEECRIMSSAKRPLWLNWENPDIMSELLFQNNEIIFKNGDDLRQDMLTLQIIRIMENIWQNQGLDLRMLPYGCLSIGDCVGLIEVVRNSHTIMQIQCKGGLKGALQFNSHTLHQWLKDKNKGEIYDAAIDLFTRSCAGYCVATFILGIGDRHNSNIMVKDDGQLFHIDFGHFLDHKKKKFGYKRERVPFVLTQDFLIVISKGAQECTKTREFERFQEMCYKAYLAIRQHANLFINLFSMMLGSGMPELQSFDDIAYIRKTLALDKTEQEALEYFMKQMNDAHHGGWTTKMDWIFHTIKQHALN
Sequence of p110α/p85α (P27986 whole entry partner): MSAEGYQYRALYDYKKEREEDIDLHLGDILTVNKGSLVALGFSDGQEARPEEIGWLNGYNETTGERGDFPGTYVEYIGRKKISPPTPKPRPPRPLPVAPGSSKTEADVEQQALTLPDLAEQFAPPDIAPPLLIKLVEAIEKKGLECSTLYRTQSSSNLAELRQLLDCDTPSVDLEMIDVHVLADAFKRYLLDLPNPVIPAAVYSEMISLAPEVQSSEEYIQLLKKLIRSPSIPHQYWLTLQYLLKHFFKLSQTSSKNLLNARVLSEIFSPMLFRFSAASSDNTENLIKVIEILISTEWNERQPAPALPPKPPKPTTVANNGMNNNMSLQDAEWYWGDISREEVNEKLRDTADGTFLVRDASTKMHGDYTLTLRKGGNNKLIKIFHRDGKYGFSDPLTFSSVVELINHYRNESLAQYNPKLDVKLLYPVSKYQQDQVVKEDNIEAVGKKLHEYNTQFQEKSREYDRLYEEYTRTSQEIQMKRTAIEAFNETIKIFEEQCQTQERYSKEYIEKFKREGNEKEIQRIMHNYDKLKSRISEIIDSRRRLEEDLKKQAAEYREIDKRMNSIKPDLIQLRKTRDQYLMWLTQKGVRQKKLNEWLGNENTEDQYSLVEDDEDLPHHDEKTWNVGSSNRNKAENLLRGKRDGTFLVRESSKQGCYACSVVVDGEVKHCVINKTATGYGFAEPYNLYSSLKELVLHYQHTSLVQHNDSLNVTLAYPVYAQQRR
Sequence of p110β/p85α (P42338 whole entry, looked up): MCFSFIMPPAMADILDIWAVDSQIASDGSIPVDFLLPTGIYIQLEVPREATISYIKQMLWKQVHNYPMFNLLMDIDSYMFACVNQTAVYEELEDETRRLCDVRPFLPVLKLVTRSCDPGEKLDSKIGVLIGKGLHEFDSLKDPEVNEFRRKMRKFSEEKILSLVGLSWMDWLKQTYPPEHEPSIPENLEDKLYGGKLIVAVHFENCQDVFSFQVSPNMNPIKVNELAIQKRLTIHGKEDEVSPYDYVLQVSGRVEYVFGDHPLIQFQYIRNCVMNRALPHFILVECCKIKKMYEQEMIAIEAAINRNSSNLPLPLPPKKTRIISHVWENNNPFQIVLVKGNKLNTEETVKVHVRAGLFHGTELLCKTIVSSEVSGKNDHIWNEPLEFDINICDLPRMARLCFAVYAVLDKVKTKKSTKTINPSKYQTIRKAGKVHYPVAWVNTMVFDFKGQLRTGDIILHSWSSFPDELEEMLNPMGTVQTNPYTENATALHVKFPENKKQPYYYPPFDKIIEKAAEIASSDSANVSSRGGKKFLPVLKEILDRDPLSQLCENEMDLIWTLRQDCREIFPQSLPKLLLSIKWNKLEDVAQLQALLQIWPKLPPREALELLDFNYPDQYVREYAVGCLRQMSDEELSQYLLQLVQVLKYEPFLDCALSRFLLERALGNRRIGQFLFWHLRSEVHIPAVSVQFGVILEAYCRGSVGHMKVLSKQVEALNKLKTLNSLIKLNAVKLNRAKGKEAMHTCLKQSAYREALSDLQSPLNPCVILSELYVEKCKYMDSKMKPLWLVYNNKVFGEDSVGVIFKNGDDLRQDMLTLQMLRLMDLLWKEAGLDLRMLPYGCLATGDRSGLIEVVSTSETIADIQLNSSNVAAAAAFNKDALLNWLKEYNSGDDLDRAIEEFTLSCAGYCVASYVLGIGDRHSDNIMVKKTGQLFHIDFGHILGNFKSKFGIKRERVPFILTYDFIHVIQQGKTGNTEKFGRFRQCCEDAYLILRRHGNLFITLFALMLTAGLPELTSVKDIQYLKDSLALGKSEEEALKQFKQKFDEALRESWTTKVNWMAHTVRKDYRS
Sequence of p110γ (P48736 whole entry): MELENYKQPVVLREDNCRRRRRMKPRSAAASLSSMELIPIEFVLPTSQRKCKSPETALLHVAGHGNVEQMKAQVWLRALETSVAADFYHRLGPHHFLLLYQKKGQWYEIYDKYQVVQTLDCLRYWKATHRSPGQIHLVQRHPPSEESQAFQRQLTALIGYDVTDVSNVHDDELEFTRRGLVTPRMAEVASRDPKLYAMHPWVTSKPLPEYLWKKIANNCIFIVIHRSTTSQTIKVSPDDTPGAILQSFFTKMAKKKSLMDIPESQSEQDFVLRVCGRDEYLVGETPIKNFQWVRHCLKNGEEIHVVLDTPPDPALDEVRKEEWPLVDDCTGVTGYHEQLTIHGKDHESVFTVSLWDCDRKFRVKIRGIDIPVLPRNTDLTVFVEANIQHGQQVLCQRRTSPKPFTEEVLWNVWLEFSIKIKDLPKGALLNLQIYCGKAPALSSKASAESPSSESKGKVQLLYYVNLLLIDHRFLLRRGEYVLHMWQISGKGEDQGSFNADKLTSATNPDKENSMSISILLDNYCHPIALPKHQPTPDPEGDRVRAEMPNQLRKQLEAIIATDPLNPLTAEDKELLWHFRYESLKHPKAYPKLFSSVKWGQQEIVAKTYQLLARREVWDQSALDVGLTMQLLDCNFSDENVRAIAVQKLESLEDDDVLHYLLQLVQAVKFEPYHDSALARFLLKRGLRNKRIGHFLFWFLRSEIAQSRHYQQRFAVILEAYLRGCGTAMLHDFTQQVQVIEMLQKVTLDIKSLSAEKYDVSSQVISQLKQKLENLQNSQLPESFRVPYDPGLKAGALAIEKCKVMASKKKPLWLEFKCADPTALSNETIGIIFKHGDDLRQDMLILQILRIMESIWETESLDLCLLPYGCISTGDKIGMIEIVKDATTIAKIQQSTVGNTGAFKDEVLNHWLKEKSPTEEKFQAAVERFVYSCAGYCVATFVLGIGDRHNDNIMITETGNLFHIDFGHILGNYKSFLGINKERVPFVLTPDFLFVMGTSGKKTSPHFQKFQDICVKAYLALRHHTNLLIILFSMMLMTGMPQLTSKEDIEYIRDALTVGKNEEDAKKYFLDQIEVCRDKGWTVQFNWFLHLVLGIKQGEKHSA
Sequence of p110δ/p85α (O00329 whole entry): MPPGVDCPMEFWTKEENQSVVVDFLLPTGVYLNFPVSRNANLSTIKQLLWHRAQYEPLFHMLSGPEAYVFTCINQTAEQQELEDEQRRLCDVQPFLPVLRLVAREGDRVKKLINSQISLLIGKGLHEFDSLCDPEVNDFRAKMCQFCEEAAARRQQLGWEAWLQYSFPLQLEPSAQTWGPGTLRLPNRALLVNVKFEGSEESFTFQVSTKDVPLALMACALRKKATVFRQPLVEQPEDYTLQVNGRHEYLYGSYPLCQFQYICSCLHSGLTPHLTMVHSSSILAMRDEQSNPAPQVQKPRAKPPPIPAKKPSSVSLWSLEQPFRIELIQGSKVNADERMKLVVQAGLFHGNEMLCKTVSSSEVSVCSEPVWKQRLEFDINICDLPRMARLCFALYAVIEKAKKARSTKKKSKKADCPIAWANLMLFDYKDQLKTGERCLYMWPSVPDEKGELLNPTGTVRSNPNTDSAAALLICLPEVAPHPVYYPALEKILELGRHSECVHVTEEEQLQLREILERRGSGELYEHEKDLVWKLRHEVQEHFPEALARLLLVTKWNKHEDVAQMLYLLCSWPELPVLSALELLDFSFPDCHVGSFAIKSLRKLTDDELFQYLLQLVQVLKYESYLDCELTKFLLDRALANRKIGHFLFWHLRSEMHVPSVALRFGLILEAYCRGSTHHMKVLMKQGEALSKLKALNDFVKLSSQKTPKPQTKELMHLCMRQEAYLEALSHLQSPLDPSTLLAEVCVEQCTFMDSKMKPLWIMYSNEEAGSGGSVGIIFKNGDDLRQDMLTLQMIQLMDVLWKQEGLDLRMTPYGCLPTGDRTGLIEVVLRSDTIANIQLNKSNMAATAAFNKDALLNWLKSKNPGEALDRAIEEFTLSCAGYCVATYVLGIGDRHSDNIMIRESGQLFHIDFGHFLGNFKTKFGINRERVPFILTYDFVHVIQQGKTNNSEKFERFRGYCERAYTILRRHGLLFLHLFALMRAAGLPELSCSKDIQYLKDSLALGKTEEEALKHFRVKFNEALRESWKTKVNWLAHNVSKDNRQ
Sequence of p110δ/p85α (P27986 whole entry partner): as the sequence (P27986 whole entry partner) above

SMILES	IC50 (p110δ/p85α) [nM]	IC50 (p110γ) [nM]	IC50 (p110α/p85α) [nM]	IC50 (p110β/p85α) [nM]	EC50 (Balb/c splenic B cells) [nM]
Cc1ccccc1-c1nc2ccccc2cc1Cn1nc(-c2ccc3oc(N)nc3c2)c2c(N)ncnc21 [Compound 133]	< 100	< 100	> 1000	> 1000	100 to 1000
CC(c1cc2ccccc2nc1N1CCN(C)CC1)n1nc(-c2cc(O)cc(F)c2)c2c(N)ncnc21 (stereo not drawn) [Compound 73]	< 100	> 1000	> 1000	< 100	< 100
CC(=O)Nc1nc2ccc(-c3nn(Cc4cc5ccccc5nc4OC(C)C)c4ncnc(N)c34)cc2s1 [Compound 157]	100 to 1000	> 1000	> 1000	> 1000	> 1000
CC(c1cc2ccccc2nc1N1CCN(C)CC1)n1nc(-c2cccc(O)c2)c2c(N)ncnc21 (stereo not drawn) [Compound 72]	< 100	> 1000	> 1000	100 to 1000	< 100
Nc1ncnc2c1c(-c1cnn(CCO)c1)nn2Cc1cc2ccccc2nc1-c1ccccc1 [Compound 179]	100 to 1000	> 1000	> 1000	> 1000	100 to 1000
CN1CCN(CCc2nc3ccccc3cc2Cn2nc(-c3cc(O)cc(F)c3)c3c(N)ncnc32)CC1 [Compound 168]	< 100	> 1000	> 1000	100 to 1000	< 100
CCN1CCN(c2nc3ccccc3cc2Cn2nc(-c3cc(O)cc(F)c3)c3c(N)ncnc32)CC1 [Compound 38]	< 100	> 1000	> 1000	< 100	< 100
Cc1ccccc1-c1nc2c(C)cccc2cc1Cn1nc(I)c2c(N)ncnc21 [Compound 7]	< 100	< 100	> 1000	> 1000	100 to 1000
CN1CCN(c2nc3ccccc3cc2Cn2nc(-c3cc(O)cc(F)c3)c3c(N)ncnc32)CC1 [Compound 50]	< 100	> 1000	> 1000	< 100	< 100
Nc1ncnc2c1c(-c1cc(O)cc(F)c1)nn2Cc1cc2c(nc1-c1ccccc1F)CCC2 [Compound 101]	100 to 1000	> 1000	> 1000	> 1000	100 to 1000
CC(C)c1ccccc1-c1nc2ccccc2cc1Cn1nc(-c2cc(O)cc(F)c2)c2c(N)ncnc21 [Compound 17]	< 100	< 100	100 to 1000	100 to 1000	< 100
Nc1nc2cc(-c3nn(Cc4cc5ccccc5nc4-c4ccccc4)c4ncnc(N)c34)ccc2o1 [Compound 145]	< 100	< 100	> 1000	> 1000	< 100
CCC(c1cc2ccccc2nc1N1CCCC1)n1nc(-c2cc(O)cc(F)c2)c2c(N)ncnc21 (stereo not drawn) [Compound 40]	< 100	100 to 1000	> 1000	> 1000	< 100
Cc1cccc2cc(Cn3nc(-c4cccc(O)c4)c4c(N)ncnc43)c(N3CCCC3)nc12 [Compound 10]	< 100		> 1000	> 1000	100 to 1000
Nc1ncnc2ccc(-c3nn(Cc4cc5ccccc5nc4-c4ccccc4F)c4ncnc(N)c34)cc12 [Compound 138]	< 100	< 100	> 1000	> 1000	100 to 1000
CN1CCN(c2nc3ccccc3nc2Cn2nc(-c3ccc4nc(N)sc4c3)c3c(N)ncnc32)CC1 [Compound 199]	< 100	< 100	100 to 1000	< 100	< 100
Nc1nc2ccc(-c3nn(Cc4cc5ccccc5nc4N4CCCC4)c4ncnc(N)c34)cc2s1 [Compound 79]	< 100	< 100	< 100	> 1000	< 100
Nc1ncnc2c1c(-c1cc(O)cc(F)c1)nn2Cc1cc2ccccc2nc1-c1cccnc1 [Compound 55]	< 100	100 to 1000	> 1000	> 1000	< 100
Nc1ccc2cc(-c3nn(Cc4cc5ccccc5nc4-c4ccccc4F)c4ncnc(N)c34)ccc2n1 [Compound 136]	< 100	< 100	> 1000	> 1000	100 to 1000
Nc1ncnc2c1c(-c1cc(O)cc(F)c1)nn2Cc1nc2ccccc2nc1N1CCCC1 [Compound 104]	< 100	100 to 1000	> 1000	> 1000	< 100
Nc1nc2ccc(-c3nn(Cc4cc5ccccc5nc4N4CCOCC4)c4ncnc(N)c34)cc2s1 [Compound 129]	< 100	< 100	< 100	100 to 1000	< 100
Nc1nc2cc(-c3nn(Cc4cc5ccccc5nc4-c4ccccc4F)c4ncnc(N)c34)ccc2[nH]1 [Compound 152]	< 100	< 100	100 to 1000	> 1000	100 to 1000
Cc1cn(-c2nc3ccccc3cc2Cn2nc(-c3ccc4nc(N)sc4c3)c3c(N)ncnc32)cn1 [Compound 176]	< 100		100 to 1000	> 1000	< 100
Nc1ncnc2c1c(-c1cccc(O)c1)nn2Cc1cc2ccccc2nc1-c1ccccc1 [Compound 148]	< 100	< 100		> 1000	< 100
CC(C)N(C)c1nc2ccccc2cc1Cn1nc(-c2cccc(O)c2)c2c(N)ncnc21 [Compound 150]	< 100	< 100		> 1000	< 100
Cc1cccc2cc(Cn3nc(-c4cc(O)cc(F)c4)c4c(N)ncnc43)c(N3CCCC3)nc12 [Compound 9]	< 100		> 1000	> 1000	< 100
CC1CCCN1c1nc2ccccc2cc1Cn1nc(-c2ccc3nc(N)sc3c2)c2c(N)ncnc21 (stereo not drawn) [Compound 187]	< 100		< 100	100 to 1000	< 100
Nc1ncnc2c1c(-c1cc(O)cc(F)c1)nn2Cc1cc2ccccc2nc1CN1CCCC1 [Compound 174]	< 100		> 1000	< 100	< 100
CC(=O)Nc1nc2ccc(-c3nn(Cc4cc5ccccc5nc4N4CCCC4C)c4ncnc(N)c34)cc2s1 (stereo not drawn) [Compound 186]	< 100		100 to 1000	> 1000	< 100
Cc1nccn1-c1cc2ccccc2cc1Cn1nc(-c2ccc3nc(N)sc3c2)c2c(N)ncnc21 [Compound 175]	< 100		100 to 1000	> 1000	< 100
